Measured values reported in patent publication US20080009418A1, “Selective Inhibitors” (Alchemia LTD., priority 2004, published 2008).

Columns and labels:
Conditions in all cases: compound at 10 μM
Human δ-opioid (DOP) = target: T1, Human δ-opioid (DOP) (Homo sapiens, UniProt P41143); assay: Radioligand binding, human δ-opioid (DOP) membranes, FlashPlate, [3H]-Bremazocine
T1 construct: purchased Perkin Elmer Biosignal
How it was run: (§1)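 Cloned human receptor membranes were coated onto FlashPlate wells and incubated with radioligand and compound (added from a 0.5 mM DMSO daughter plate) for 1 hour at room temperature in the dark. Scintillation counting gave percent inhibition, with DMSO defining total and reference ligand defining non-specific binding.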

Human κ-Opioid (KOP) = target: T2, Human κ-Opioid (KOP) (Homo sapiens, UniProt P41145); assay: Radioligand binding, human κ-opioid (KOP) membranes, filtration, [3H]-Diprenorphine
T2 construct: purchased Perkin Elmer Biosignal
T2 sequence (P41145 whole entry): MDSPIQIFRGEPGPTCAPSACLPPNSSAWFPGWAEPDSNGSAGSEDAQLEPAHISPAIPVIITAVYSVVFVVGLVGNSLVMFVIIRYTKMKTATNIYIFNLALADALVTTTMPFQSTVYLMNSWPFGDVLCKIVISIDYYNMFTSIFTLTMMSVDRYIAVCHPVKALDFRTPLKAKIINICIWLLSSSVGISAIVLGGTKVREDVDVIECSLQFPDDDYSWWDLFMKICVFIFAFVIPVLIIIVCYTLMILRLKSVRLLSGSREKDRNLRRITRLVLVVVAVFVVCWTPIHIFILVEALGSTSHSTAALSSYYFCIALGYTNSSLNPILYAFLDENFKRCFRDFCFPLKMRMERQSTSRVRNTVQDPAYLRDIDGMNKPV
How it was run: (§2)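 Percent inhibition of radioligand binding measured on recombinant human membranes: NK1 with [125I]-Substance P, KOP with [3H]-Diprenorphine. Incubation 1 h at room temperature, then harvest onto 0.3% PEI-soaked filters, cold Tris-HCl pH 7.4 washes and scintillation counting; non-specific binding from reference ligand wells.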

Human Melanocortin (MC3) = target: T3, Human Melanocortin (MC3) (Homo sapiens, UniProt P41968); assay: Radioligand binding, human melanocortin MC3 membranes, FlashPlate, [125I]-NDP-αMSH
T3 construct: purchased Perkin Elmer Biosignal
T3 sequence (P41968 whole entry): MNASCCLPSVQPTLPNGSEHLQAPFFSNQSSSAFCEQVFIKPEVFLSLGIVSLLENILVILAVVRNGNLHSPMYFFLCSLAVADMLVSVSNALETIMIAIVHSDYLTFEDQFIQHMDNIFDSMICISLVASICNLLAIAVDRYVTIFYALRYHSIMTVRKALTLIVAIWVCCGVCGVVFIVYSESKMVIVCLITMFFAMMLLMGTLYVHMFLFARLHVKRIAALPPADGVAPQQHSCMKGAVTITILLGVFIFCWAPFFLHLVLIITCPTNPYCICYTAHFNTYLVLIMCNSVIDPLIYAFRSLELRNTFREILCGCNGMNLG
How it was run: as §1

Human Melanocortin (MC4) = target: T4, Human Melanocortin (MC4) (Homo sapiens, UniProt P32245); assay: Radioligand binding, human melanocortin MC4 membranes, FlashPlate, [125I]-NDP-αMSH
T4 construct: purchased Perkin Elmer Biosignal
T4 sequence (P32245 whole entry): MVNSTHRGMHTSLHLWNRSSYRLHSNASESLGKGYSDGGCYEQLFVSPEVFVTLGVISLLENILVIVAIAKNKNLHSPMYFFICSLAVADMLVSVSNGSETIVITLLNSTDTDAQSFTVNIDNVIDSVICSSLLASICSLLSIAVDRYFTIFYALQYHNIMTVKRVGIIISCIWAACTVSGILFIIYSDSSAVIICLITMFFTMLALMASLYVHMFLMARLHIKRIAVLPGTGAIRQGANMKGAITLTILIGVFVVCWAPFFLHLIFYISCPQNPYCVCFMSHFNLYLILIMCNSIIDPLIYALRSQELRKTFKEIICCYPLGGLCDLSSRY
How it was run: as §1

Human melanocortin (MC5) = target: T5, Human melanocortin (MC5) (Homo sapiens, UniProt P33032); assay: Radioligand binding, human melanocortin MC5 membranes, FlashPlate, [125I]-NDP-αMSH
T5 construct: purchased Perkin Elmer Biosignal
T5 sequence (P33032 whole entry): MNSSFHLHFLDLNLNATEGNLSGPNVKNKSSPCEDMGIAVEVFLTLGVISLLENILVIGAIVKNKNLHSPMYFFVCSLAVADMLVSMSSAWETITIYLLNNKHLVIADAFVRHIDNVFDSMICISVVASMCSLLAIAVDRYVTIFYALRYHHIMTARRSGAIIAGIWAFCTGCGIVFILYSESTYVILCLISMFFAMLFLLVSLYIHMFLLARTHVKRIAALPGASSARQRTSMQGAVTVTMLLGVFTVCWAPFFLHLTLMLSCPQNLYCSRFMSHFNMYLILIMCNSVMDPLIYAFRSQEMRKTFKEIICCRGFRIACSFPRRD
How it was run: as §1

[1] = target: T6, Human melanin-concentrating hormone (MCH1) (Homo sapiens, UniProt Q99705); assay: Radioligand binding, human melanin-concentrating hormone MCH1 membranes, FlashPlate, [125I]-S36057
T6 construct: purchased Perkin Elmer Biosignal
T6 sequence (Q99705 whole entry): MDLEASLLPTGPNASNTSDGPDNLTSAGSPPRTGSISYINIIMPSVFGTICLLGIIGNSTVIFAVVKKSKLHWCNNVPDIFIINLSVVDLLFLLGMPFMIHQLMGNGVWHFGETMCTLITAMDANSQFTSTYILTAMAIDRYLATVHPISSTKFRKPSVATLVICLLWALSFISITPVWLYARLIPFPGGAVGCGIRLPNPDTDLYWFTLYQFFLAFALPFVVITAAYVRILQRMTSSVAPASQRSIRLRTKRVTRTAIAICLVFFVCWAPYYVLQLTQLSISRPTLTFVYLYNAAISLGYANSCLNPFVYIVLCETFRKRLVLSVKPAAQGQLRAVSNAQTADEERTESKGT
How it was run: as §1

Human μ-opioid (MOP) = target: T7, Human μ-opioid (MOP) (Homo sapiens, UniProt P35372); assay: Radioligand binding, human μ-opioid (MOP) membranes, FlashPlate, [3H]-Naloxone
T7 construct: purchased Perkin Elmer Biosignal
T7 sequence (P35372 whole entry): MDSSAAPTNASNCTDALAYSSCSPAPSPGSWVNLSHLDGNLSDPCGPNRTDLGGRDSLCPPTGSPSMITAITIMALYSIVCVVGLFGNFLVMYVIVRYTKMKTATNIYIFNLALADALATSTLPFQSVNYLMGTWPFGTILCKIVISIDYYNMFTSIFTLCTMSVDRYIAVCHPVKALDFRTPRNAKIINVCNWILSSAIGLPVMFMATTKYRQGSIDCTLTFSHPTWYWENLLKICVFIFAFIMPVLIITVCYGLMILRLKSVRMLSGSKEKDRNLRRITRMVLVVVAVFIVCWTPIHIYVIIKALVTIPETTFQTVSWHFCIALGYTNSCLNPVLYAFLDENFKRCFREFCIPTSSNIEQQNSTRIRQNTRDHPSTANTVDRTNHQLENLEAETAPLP
How it was run: as §1

Human neurokinin (NK1) = target: T8, Human neurokinin (NK1) (Homo sapiens, UniProt P25103); assay: Radioligand binding, human neurokinin NK1 membranes, filtration, [125I]-Substance P
T8 construct: purchased Perkin Elmer Biosignal
T8 sequence (P25103 whole entry): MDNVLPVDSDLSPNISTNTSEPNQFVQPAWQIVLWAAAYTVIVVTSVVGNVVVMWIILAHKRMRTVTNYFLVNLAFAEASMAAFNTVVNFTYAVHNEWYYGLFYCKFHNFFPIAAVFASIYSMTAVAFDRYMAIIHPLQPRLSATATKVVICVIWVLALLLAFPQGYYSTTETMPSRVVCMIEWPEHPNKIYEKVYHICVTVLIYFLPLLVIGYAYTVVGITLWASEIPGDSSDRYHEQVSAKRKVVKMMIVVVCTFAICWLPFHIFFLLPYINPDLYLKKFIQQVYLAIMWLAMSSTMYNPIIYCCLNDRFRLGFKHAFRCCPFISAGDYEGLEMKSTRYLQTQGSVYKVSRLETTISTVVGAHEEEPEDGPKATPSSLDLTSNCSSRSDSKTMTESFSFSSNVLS
How it was run: as §2

[2] = target: T9, Human neuropeptide Y (NPY-Y1) (Homo sapiens, UniProt P25929); assay: Radioligand binding, human neuropeptide Y NPY-Y1 membranes, FlashPlate, [125I]-PYY
T9 construct: purchased Perkin Elmer Biosignal
T9 sequence (P25929 1-384): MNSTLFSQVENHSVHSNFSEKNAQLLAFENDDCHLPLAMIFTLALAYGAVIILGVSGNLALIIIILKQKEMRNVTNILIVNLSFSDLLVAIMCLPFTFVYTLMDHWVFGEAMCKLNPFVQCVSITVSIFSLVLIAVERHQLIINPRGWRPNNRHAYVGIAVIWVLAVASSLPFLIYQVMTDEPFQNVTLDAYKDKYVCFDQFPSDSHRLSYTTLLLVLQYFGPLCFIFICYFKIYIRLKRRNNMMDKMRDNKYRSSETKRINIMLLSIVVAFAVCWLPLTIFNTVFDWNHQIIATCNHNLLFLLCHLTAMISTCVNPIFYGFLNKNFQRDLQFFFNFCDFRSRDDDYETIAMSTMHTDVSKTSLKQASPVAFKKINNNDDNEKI
How it was run: as §1

Human opioid (ORL1) = target: T10, Human opioid (ORL1) (Homo sapiens, UniProt P41146); assay: Radioligand binding, human opioid ORL1 membranes, FlashPlate, [125I]-Nociceptin
T10 construct: purchased Perkin Elmer Biosignal
T10 sequence (P41146 whole entry): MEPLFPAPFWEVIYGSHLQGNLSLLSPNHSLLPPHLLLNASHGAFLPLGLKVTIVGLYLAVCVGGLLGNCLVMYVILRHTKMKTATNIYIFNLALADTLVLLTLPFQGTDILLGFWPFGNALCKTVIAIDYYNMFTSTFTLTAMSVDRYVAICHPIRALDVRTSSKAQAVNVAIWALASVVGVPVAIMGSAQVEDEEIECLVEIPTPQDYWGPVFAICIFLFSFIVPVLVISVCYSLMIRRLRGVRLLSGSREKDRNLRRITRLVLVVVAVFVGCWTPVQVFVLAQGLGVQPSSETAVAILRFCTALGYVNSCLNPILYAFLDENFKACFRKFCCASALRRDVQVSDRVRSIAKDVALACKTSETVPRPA
How it was run: as §1

Mouse urotensin (mUR2) = target: T11, Mouse urotensin (mUR2) (Mus musculus, UniProt Q8VIH9); assay: Radioligand binding, mouse urotensin mUR2 membranes, FlashPlate, [125I]-Urotensin II
T11 construct: purchased Perkin Elmer Biosignal
T11 sequence (Q8VIH9 1-385): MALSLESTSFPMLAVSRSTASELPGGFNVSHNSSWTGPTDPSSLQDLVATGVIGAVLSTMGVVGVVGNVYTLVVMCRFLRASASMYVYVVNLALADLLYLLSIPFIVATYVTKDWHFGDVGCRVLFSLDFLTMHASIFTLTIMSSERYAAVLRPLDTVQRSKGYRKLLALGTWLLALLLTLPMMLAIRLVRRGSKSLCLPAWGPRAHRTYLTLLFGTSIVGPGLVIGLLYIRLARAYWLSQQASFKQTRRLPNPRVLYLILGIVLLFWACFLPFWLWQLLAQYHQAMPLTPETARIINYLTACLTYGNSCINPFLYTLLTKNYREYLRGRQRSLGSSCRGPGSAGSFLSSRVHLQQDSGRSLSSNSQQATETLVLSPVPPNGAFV
How it was run: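 Cloned mouse urotensin (mUR2) receptor membranes from Perkin Elmer Biosignal were immobilized in FlashPlate microplates using a proprietary coating. Each well got 19.5 μl buffer, then 0.5 μl of DMSO, reference ligand, or compound. Adding 5 μl of [125I]-Urotensin II, diluted to 5× final concentration in binding buffer, started binding. Plates were sealed with TopSeal-A and incubated 1 hour at room temperature in the dark. Wells were counted for 30 seconds each on a TopCount after a 60-second delay, and percentage inhibition was calculated.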

T1 sequence (P41143 whole entry): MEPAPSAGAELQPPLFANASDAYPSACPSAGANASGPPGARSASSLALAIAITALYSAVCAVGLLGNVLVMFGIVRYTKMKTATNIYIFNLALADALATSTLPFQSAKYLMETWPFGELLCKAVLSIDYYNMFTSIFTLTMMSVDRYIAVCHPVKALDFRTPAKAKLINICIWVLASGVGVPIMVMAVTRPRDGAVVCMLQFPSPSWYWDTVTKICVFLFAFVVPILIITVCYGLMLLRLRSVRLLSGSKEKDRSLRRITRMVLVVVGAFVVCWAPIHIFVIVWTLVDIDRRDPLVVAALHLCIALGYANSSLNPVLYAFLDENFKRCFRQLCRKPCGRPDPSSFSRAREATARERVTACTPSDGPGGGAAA

N=C(N)NCC(=O)NC1C(OCc2ccc(Cl)cc2)OC(COCc2ccccc2)C(O)C1OCc1ccc(Cl)cc1 (single isomer, unassigned) [compound 509]
A1: inhibition of radioligand binding, human δ-opioid (DOP) (Human δ-opioid (DOP); [3H]-Bremazocine): − (“−” indicates less than 50% inhibition at 10 μM)
A2: inhibition of radioligand binding, human κ-opioid (KOP) (Human κ-Opioid (KOP); [3H]-Diprenorphine): − (“−” indicates less than 50% inhibition at 10 μM)
A3: inhibition of radioligand binding, human melanocortin (MC3) (Human Melanocortin (MC3); [125I]-NDP-αMSH, 10 µM): − (“−” indicates less than 50% inhibition at 10 μM)
A4: inhibition of radioligand binding, human melanocortin (MC4) (Human Melanocortin (MC4); [125I]-NDP-αMSH): + (“+” indicates greater than 50% inhibition at 10 μM)
A5: inhibition of radioligand binding, human melanocortin (MC5) (Human melanocortin (MC5); [125I]-NDP-αMSH): + (“+” indicates greater than 50% inhibition at 10 μM)
A6: inhibition of radioligand binding, human melanin-concentrating hormone (MCH1) ([1]; [125I]-S36057): + (“+” indicates greater than 50% inhibition at 10 μM)
A7: inhibition of radioligand binding, human μ-opioid (MOP) (Human μ-opioid (MOP); [3H]-Naloxone, 10 µM): + (“+” indicates greater than 50% inhibition at 10 μM)
A8: inhibition of radioligand binding, human neurokinin (NK1) (Human neurokinin (NK1); [125I]-Substance P): + (“+” indicates greater than 50% inhibition at 10 μM)
A9: inhibition of radioligand binding, human neuropeptide Y (NPY-Y1) ([2]; [125I]-PYY): − (“−” indicates less than 50% inhibition at 10 μM)
A10: inhibition of radioligand binding, human opioid (ORL1) (Human opioid (ORL1); [125I]-Nociceptin, 10 µM): − (“−” indicates less than 50% inhibition at 10 μM)
A11: inhibition of radioligand binding, mouse urotensin (mUR2) (Mouse urotensin (mUR2); [125I]-Urotensin II): − (“−” indicates less than 50% inhibition at 10 μM)

CO[C@H]1[C@H](O)[C@@H](COCc2ccc3ccccc3c2)OC(OCc2ccc3ccccc3c2)[C@@H]1NC(=O)CCCNC(=N)N (stereo partly shown) [compound 73]
A1 radioligand binding inhibition (Human δ-opioid (DOP); human δ-opioid (DOP) membranes): − (“−” indicates less than 50% inhibition at 10 μM)
A2 radioligand binding inhibition (Human κ-Opioid (KOP); human κ-opioid (KOP) membranes): + (“+” indicates greater than 50% inhibition at 10 μM)
A3 radioligand binding inhibition (Human Melanocortin (MC3); human melanocortin MC3 membranes): − (“−” indicates less than 50% inhibition at 10 μM)
A4 radioligand binding inhibition (Human Melanocortin (MC4); human melanocortin MC4 membranes): − (“−” indicates less than 50% inhibition at 10 μM)
A5 radioligand binding inhibition (Human melanocortin (MC5); human melanocortin MC5 membranes): + (“+” indicates greater than 50% inhibition at 10 μM)
A6 radioligand binding inhibition ([1]; human MCH1 membranes): − (“−” indicates less than 50% inhibition at 10 μM)
A7 radioligand binding inhibition (Human μ-opioid (MOP); human μ-opioid (MOP) membranes): + (“+” indicates greater than 50% inhibition at 10 μM)
A8 radioligand binding inhibition (Human neurokinin (NK1); human neurokinin NK1 membranes): + (“+” indicates greater than 50% inhibition at 10 μM)
A9 radioligand binding inhibition ([2]; human NPY-Y1 membranes): − (“−” indicates less than 50% inhibition at 10 μM)
A10 radioligand binding inhibition (Human opioid (ORL1); human ORL1 membranes): + (“+” indicates greater than 50% inhibition at 10 μM)
A11 radioligand binding inhibition (Mouse urotensin (mUR2); mouse urotensin mUR2 membranes): − (“−” indicates less than 50% inhibition at 10 μM)
